According to US20260285897A1, “Neurosteroids and Prodrugs Thereof” (Emory University, priority 2023, published 2026):

Assays:
Plasma stability assay = assay type: in vitro ADME; conditions: human plasma, 37° C., read-out: Human plasma t1/2
Method: (§1) 3 μM test compound was incubated in Human or Mouse plasma (BioIVT) at 37° C. with aliquots (100 μL) removed at 0, 15, 30, 60, 120, and 240 minutes. Enzymatic activity was quenched at each time point with the addition of 200 μL of acetonitrile containing 2 μM internal standard (d5-7-ethoxy coumarin), immediately vortexed and centrifuged at 15,000 rpm for 25 min at 4° C. Supernatants were transferred to autosampler vials for LC-MS/MS analysis. LC-MS/MS analysis was performed using Agilent Infinity II 1260 HPLC coupled to a G6460C QQQ MS. Half-lives were determined by plotting ln of % test compound remaining versus time and performing linear regression to determine the slope. Slope=−k and t½=0.693/k for first order kinetics.

GABAA α4β3δ = GABAA α4β3δ (Homo sapiens, UniProt P28472+P48169); assay: GABAA electrophysiology, PAM mode, SyncroPatch automated patch clamp; assay type: cell-based; conditions: for Emax: read-out: GABAA α4β3δ Maximum Potentiation; for selectivity for GABAA receptor containing the delta (δ) subunit compared to a GABAA receptor without it: α4β3δ vs α1β2γ2, in words
Method: (§2) The SyncroPatch assay is performed at room temperature. A fast application protocol is used, in which the ligand is rapidly applied and then removed from the cell. To test for PAM mode, the agonist (GABA EC20) is applied three times as a control and to show reproducibility, followed by a minimum 2-minute pre-incubation of client compound and then re-application of agonist (GABA EC20) in the presence of client compound. Finally, a saturating concentration of agonist is applied. A steady-state voltage pulse at −80 mV is applied throughout the assay. Compounds are prepared as 10 mM DMSO stocks.
(§3) Automated patch clamp-recordings are performed using the SyncroPatch 384i. The voltage protocol generation and data collection are performed with Patch Controller 384 V2.2.1 and Data Controller V2.3.0. The PAM activity is calculated using the following equation, [(Icomp/Ireference)−1], where Icomp is the current amplitude in the presence of the compound and Ireference is the current amplitude in the presence of GABA alone. This builds an activation concentration-response curve (CRC), where <0.2 represents no PAM activity and >0.2 represents PAM activity. If a “bell-shape curve” is observed at the higher concentrations, showing a reduction in activity in comparison to previous concentrations, then to allow for a more accurate curve fit, these concentrations are removed from the graphs where necessary and noted in the results table.

GABAA α1β2γ2 = GABAA α1β2γ2 (Homo sapiens, UniProt P14867+P47870); assay: as above; assay type: cell-based; conditions: for Emax: read-out: GABAA α1β2γ2 Maximum Potentiation
Method: as §2, §3

[1] = Aqueous stability assay in PBS (DPBS), HPLC; assay type: physicochemical; conditions: 1 mg/mL, room temperature, parent remaining at 2 hr, read-out: PBS (% REM at 2 hr)
Method: Aqueous stability experiments were performed on an Agilent 1100 HPLC equipped with an Agilent 1200 autosampler. HPLC grade solvents were exclusively used during analysis, with acetonitrile being purchased from Sigma Aldrich, and water and formic acid provided by Fisher Scientific. Sample solutions were prepared in 2.0 mL large opening RAM™ vials from Chemglass using DPBS as the aqueous medium.
Tested compounds were dissolved in DPBS at a standard concentration of 1 mg/mL. All mixtures were then sonicated for 5 min or stirred until complete dissolution was achieved. Any precipitate observed in sample solutions was filtered with a PTFE syringe filter prior to analysis. Immediately after sample preparation, injection by the HPLC autosampler was performed, which was recorded as the initial time point (t=0 min). Samples were then kept in the autosampler at room temperature and injected at designated intervals without additional filtration or sample modification. Next, the area of the parent peak in each chromatogram was determined by automated integration in the Agilent ChemStation software. Pseudo first-order half-lives were then ascertained by calculating the percent of the parent compound remaining after each time point, Plots of time (x-axis) vs. the natural logarithm of percent parent remaining (y-axis) were subsequently constructed to determine the slope. Finally, the aqueous stability was evaluated using the following equation: […]
The HPLC conditions were as follows: injection volume, 1 μL; column temperature: 40° C.; detector: 254 nm; stationary phase: Zorbax Eclipse XDB-C18 (4.6×150 mm, 5 μm); flow rate: 1 mL/min; mobile phase: 80-95% acetonitrile in H2O (0.1% formic acid).

Aqueous solubility = conditions: water
[2] = Microsomal stability assay; assay type: in vitro ADME; conditions: Human Liver Microsomes, 37° C., unit in cell hr (head: min), read-out: HLM t1/2
Method: as §1, with “Liver Microsomes (Xenotech)” for “or Mouse plasma (BioIVT)”, “[…])” for “μL)”, “0, 5, 10,” for “0,”, “15,” for “15, 30, 60, 120,”, “30” for “240”

Chain of GABAA α1β2γ2 (P14867 28-456): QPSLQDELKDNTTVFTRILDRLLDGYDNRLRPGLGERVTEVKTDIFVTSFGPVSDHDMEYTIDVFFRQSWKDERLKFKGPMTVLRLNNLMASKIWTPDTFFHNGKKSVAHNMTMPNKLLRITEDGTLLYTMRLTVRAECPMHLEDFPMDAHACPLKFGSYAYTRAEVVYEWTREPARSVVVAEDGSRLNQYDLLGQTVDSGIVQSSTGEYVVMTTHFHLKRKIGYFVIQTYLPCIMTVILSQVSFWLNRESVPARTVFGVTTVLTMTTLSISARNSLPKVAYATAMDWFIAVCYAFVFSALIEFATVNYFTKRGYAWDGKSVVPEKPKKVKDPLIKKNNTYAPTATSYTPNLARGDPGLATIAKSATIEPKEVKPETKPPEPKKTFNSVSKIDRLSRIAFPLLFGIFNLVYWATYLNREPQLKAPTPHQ
Chain of GABAA α1β2γ2 (P47870 25-512 limits assumed): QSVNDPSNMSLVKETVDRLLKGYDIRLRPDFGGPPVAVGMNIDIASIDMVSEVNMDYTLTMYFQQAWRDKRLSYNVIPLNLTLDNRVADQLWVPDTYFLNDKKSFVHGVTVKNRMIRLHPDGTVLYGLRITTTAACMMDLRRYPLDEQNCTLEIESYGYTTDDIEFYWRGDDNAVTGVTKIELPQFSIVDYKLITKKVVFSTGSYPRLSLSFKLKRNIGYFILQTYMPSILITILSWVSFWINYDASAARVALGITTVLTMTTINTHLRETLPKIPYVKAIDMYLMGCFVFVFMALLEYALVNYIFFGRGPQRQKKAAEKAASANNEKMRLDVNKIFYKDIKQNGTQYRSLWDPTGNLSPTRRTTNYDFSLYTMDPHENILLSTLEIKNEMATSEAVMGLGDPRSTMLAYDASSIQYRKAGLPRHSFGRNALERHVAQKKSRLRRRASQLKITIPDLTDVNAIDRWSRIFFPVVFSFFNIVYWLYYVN
Chain of GABAA α1β2γ2 (P18507 40-475 partner): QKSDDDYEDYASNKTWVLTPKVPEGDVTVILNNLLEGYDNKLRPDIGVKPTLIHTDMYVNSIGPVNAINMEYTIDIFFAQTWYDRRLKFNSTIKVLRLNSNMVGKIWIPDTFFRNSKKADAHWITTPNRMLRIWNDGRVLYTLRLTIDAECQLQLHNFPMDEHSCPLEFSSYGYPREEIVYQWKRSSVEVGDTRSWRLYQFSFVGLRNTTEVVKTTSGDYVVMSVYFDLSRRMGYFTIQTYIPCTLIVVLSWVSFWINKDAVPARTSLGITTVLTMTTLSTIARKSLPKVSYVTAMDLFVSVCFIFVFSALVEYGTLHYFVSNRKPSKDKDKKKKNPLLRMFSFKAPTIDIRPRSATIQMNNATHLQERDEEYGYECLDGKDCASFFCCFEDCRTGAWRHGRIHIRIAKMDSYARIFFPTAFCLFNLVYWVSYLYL
Chain of GABAA α4β3δ (P48169 36-554): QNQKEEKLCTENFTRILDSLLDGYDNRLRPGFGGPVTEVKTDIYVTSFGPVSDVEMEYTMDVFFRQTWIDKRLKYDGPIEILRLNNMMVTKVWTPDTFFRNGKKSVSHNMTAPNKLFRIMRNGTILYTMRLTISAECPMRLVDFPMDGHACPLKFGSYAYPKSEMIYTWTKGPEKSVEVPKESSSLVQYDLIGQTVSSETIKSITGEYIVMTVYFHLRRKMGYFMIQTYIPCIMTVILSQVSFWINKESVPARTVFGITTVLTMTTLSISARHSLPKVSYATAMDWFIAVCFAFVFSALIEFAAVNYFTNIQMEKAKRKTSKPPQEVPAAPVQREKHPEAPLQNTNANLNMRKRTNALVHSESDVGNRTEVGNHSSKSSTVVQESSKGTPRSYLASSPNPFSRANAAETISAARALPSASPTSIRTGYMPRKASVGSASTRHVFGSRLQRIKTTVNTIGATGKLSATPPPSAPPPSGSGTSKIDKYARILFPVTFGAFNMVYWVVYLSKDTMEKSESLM
Chain of GABAA α4β3δ (P28472 26-473): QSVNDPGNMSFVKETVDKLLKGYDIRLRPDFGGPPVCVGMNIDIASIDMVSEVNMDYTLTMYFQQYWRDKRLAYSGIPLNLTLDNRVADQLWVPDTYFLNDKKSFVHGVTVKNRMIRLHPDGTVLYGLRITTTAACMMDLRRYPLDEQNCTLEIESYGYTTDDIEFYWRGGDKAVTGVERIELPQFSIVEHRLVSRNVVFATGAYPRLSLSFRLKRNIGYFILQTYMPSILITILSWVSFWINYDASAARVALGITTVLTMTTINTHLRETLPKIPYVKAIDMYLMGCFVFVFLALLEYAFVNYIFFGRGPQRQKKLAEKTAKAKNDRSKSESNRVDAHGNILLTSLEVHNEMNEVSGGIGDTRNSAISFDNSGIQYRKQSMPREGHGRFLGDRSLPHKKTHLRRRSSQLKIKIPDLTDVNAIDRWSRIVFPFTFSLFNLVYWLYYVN
Chain of GABAA α4β3δ (O14764 17-452 partner limits assumed): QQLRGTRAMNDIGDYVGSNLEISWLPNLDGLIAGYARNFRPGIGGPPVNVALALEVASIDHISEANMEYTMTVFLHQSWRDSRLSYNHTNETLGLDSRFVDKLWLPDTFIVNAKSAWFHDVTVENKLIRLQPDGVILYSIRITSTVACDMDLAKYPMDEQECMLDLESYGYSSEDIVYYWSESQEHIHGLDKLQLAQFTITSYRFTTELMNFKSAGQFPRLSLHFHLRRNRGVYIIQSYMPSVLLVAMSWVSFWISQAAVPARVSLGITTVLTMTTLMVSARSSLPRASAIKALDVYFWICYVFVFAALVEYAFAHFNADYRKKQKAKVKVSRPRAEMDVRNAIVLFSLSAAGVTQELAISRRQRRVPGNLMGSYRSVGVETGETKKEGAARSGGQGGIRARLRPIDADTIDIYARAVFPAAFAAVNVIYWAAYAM

Row | Structure (SMILES) | EC50 (GABAA α4β3δ) [nM] | EC50 (GABAA α1β2γ2) [nM] | half-life at 3 µM (Plasma stability assay) [min] | remaining at 2 h [1] [%] | solubility (Aqueous solubility) [µM] | also measured
1 | C/C(=N\O)[C@H]1CC[C@H]2[C@@H]3CC[C@@H]4C[C@](C)(O)CC[C@@H]4[C@H]3CC[C@]12C [LEH- NEURO- 007 (30), (E)-1-((3R,5R,8R,9R,10S,13S,14S,17S)-3-hydroxy-3,13-dimethylhexadecahydro-1H-cyclopenta[a]phenanthren-17-yl)ethan-1-one oxime] | 383 | 692 | – | – | – | half-life at 3 µM (Plasma stability assay; unit in cell hr (head: min)): > 240 min; Emax (GABAA α4β3δ): 510%; selectivity for GABAA receptor containing the delta (δ) subunit compared to a GABAA receptor without it (GABAA α4β3δ): selectively potentiate; Emax (GABAA α1β2γ2): 121%
2 | C/C(=N\O)[C@@]1(F)CC[C@H]2[C@@H]3CC[C@H]4C[C@](C)(O)CC[C@]4(C)[C@H]3CC[C@@]21C [GP-GAN- 006 (15), (E)-1-((3R,8R,9S,10S,13S,14S,17R)-17-fluoro-3-hydroxy-3,10,13-trimethylhexadecahydro-1H-cyclopenta[a]phenanthren-17-yl)ethan-1-one oxime] | – | – | 3 | 61 | – | –
3 | C/C(=N\O)[C@H]1CC[C@H]2[C@@H]3CCC4C[C@](C)(O)CC[C@]4(C)[C@H]3CC[C@]12C (stereo partly drawn) [compound 10] | – | – | – | – | – | selectivity for GABAA receptor containing the delta (δ) subunit compared to a GABAA receptor without it (GABAA α4β3δ): selectively potentiate
4 | C/C(=N\OC(=O)N(C)C[C@@H]1CCCN1)[C@H]1CC[C@H]2[C@@H]3CCC4C[C@](C)(O)CC[C@]4(C)[C@H]3CC[C@]12C.Cl (stereo partly drawn) [GP-GAN- 003 (20b), (E)-1-((3R,8R,9S,10S,13S,14S,17S)-3-hydroxy-3,10,13-trimethylhexadecahydro-1H-cyclopenta[a]phenanthren-17-yl)ethan-1-one O-(methyl(((S)-pyrrolidin-2-yl)methyl)carbamoyl) oxime hydrochloride] | – | – | 6 | 10 | > 750 | –
5 | CC(=O)[C@H]1CC[C@H]2[C@@H]3CC[C@H]4C[C@](C)(O)CC[C@]4(C)[C@H]3CC[C@]12C [Ganaxalone, Ganaxolone, reference compound] | 879 | 540 | – | – | – | –
6 | C/C(=N\O)[C@H]1CC[C@H]2[C@@H]3CC[C@H]4C[C@](C)(O)CC[C@]4(C)[C@H]3CC[C@]12C [GP-GAN- 001 (10), (E)-1-((3R,8R,9S,10S,13S,14S,17S)-3-hydroxy-3,10,13-trimethylhexadecahydro-1H-cyclopenta[a]phenanthren-17-yl)ethan-1-one oxime] | 1000 | 1620 | – | – | – | half-life at 3 µM [2]: > 120 min; half-life at 3 µM (Plasma stability assay; unit in cell hr (head: min)): > 240 min; Emax (GABAA α4β3δ): 533%; Emax (GABAA α1β2γ2): 133%
7 | CNCCN(C(=O)O/N=C(\C)[C@H]1CC[C@H]2[C@@H]3CCC4C[C@](C)(O)CC[C@]4(C)[C@H]3CC[C@]12C)C(C)C.Cl (stereo partly drawn) [GP-GAN- 004 (20d), (E)-1-((3R,8R,9S,10S,13S,14S,17S)-3-hydroxy-3,10,13-trimethylhexadecahydro-1H-cyclopenta[a]phenanthren-17-yl)ethan-1-one O-(isopropyl(2-(methylamino)ethyl)carbamoyl) oxime hydrochloride] | – | – | 28 | 52 | > 750 | –
8 | CNCCN(C)C(=O)O/N=C(\C)[C@H]1CC[C@H]2[C@@H]3CCC4C[C@](C)(O)CC[C@]4(C)[C@H]3CC[C@]12C.Cl (stereo partly drawn) [GP-GAN- 002 (20a), (E)-1-((3R,8R,9S,10S,13S,14S,17S)-3-hydroxy-3,10,13-trimethylhexadecahydro-1H-cyclopenta[a]phenanthren-17-yl)ethan-1-one O-(methyl(2-(methylamino)ethyl)carbamoyl) oxime hydrochloride] | – | – | 55 | 66 | > 750 | –
9 | CNCCN(C(=O)O/N=C(\C)[C@H]1CC[C@H]2[C@@H]3CCC4C[C@](C)(O)CC[C@]4(C)[C@H]3CC[C@]12C)C1CCC1.Cl (stereo partly drawn) [GP-GAN- 005 (20c), (E)-1-((3R,8R,9S,10S,13S,14S,17S)-3-hydroxy-3,10,13-trimethylhexadecahydro-1H-cyclopenta[a]phenanthren-17-yl)ethan-1-one O-(cyclobutyl(2-(methylamino)ethyl)carbamoyl) oxime hydrochloride] | – | – | 39 | 43 | > 750 | –
10 | C/C(=N\OCOP(=O)(O)O)[C@H]1CC[C@H]2[C@@H]3CCC4C[C@](C)(O)CC[C@]4(C)[C@H]3CC[C@]12C (stereo partly drawn) [GP-GAN- 007 (22), 1,3-Dihydroxy-2-(hydroxymethyl)propan-2-aminium ((((E)-1-((3R,8R,9S,10S,13S,14S,17S)-3-hydroxy-3,10,13-trimethylhexadecahydro-1H-cyclopenta[a]phenanthren-17-yl)ethylidene)amino)oxy)methyl hydrogen phosphate] | – | – | – | – | > 1000 | –
